{
  "source": "patent US20070281036A1",
  "about": "“System and method of delivering a desired material to a cell” (University of Vermont and State Agricultural College, priority 2005, published 2007)",
  "key": {"[1]": {"system": "human mesothelioma (MM) cells", "test": "LDH release assay of cell lysis, MM cells", "conditions": "doses of DOX ranging from 800 nM to 2000 nM; 48 h", "protocol": "Cells were plated and grown to 70-80% confluence at 37° C. in complete medium. Medium was aspirated and replaced with maintenance medium containing 0.5% FBS, and incubated for 24 hrs.\nBriefly, cells were treated with APMS and/or DOX alone and in combination for varying amounts of time, and 50 μl of the supernatant was removed (in triplicate) and placed into wells of a 96-well plate. Fifty μl of substrate buffer was added to each well, and the plate was incubated for 30 min at room temperature in the dark. Fifty μl of stop solution was then added, and plates were read at 490 nm."}, "[2]": {"system": "phosphorylated histone protein H2AX (γH2AX)", "test": "Immunocytochemical analysis of γH2AX", "type": "cell-based, human", "conditions": "80 nM DOX; 8 and 24 h; compared to control", "experimental": "Mechanisms of Cytotoxicity. To explore mechanisms of toxicity of DOX at low concentrations delivered by APMS, levels of phosphorylated histone protein H2AX (γH2AX), a marker of DNA double strand breaks, and Apoptosis Inducing Factor (AIF), a marker of mitochondrial mediated apoptosis, were analyzed.\nImmunocytochemical Analysis ofphosphorylated histone protein H2AX (γH2AX). Monolayers of cells were grown on glass coverslips and treated as described above. Cells were then washed in PBS, then fixed in 4% paraformaldehyde and permeabilized in 0.1% Triton X-100. Cells were blocked for 1 h at room temperature in PBS containing 3% bovine serum albumin (BSA), then incubated in a 1:500 dilution of mouse monoclonal anti-phospho-histone H2AX antibody (#05-636, Upstate Cell Signaling, Charlottesville, Va.) in 3% BSA overnight at 4° C. Cells were then washed in PBS and incubated in a 1:300 dilution of goat anti-mouse IgO conjugated to Alexa-647 fluorescent tag (Molecular Probes, Invitrogen) in PBS for 45 min at room temperature in the dark. […] Coverslips were then washed and mounted on glass slides using Aqua Poly/Mount (#18606, Polysciences, Inc., Warrington, Pa.) and analyzed using a Zeiss LSM 510 META confocal scanning laser microscope (Carl Zeiss Microimaging)."}, "[3]": {"system": "human mesothelioma cells", "type": "cell-based", "experimental": "We have also modified existing HPLC methods (Andersen et al, 1993, 1994; De Bruijn et al, 1999) to compare the amounts of DOX transferred to cellular interiors by DOX-loaded APMS and DOX alone. More DOX is transferred to cells when it is preloaded into APMS than when it is administered alone. Briefly, measurement of cellular DOX concentrations was accomplished by lysis and enzymatic digestion of the cellular contents, along with centrifugation. […] Similar methodology was used to quantify the amount of extracellular DOX, and since the total amount of DOX within the APMS particles prior to its addition to the cell culture was known, the amount of DOX remaining within the particles could be determined (FIG. 7). Intracellular and extracellular amounts of DOX were measured by fluorescence HPLC after digestion and release of DOX from cellular material (FIG. 7A). […]\nPreloading APMS with Doxorubicin (DOX). […] The concentration of DOX within the APMS were calculated theoretically and verified via HPLC following hydration overnight in water or methanol at room temperature, as previously described (13). Concentrations of DOX in cells were measured. […] Similar methodology was used to quantify the amount of extracellular DOX, and since the total amount of DOX within the APMS particles prior to its addition to the cell culture was known, the amount of DOX remaining within the particles could be determined."}, "[4]": {"system": "AKT", "test": "Western blot for phosphorylated AKT", "type": "cell-based, human", "conditions": "80 nM DOX; each time point", "experimental": "(§1) Western Blot Analyses for Phosphorylated ERK's1/2 and AKT To determine whether DOX at low concentrations delivered by APMS modified signaling pathways associated with cell survival, nearly confluent MM cells were washed 3× with cold PBS, scraped from culture plates, and collected by centrifugation at 14,000 rpm for 1 min. The pellet was resuspended in lysis buffer [20 mM Tris (pH 7.4), 1% Triton X-100, 10% glycerol, 137 mM NaCl, 2 mM EDTA, 25 mM β-glycerophosphate, 1 mM Na3VO4, 2 mM pyrophosphate, 1 mM PMSF, 10 μg/ml leupeptin, 1 mM DTT, 10 mM NaF, 1% aprotinin], incubated at 4° C. for 15 min, and centrifuged at 14,000 rpm for 20 min. Protein concentrations were determined using a Bio-Rad RC-DC Assay (Bio-Rad Laboratories, Hercules, Calif.). […] of protein in sample buffer [62.5 mM Tris-HCl (pH 6.8), 2% sodium dodecyl sulfate (SDS), 10% glycerol, 50 mM dithiothreitol, 0.1% w/v bromophenol blue] was resolved by electrophoresis in 10% SDS-polyacrylamide gels, and transferred to nitrocellulose using a Mini Trans-Blot Cell apparatus (Bio-Rad Laboratories). […] Blots were washed 3× in TBS/0.1% Tween-20, and protein bands were visualized with the ECL Western Blotting Detection Reagents (Amersham Biosciences, GE Healthecare UK Limited, Buckinghamshire, UK) and quantitated using a Bio-Rad phosphorimager."}, "[5]": {"system": "NF-κB", "test": "NF-κB electrophoretic mobility shift assay", "type": "cell-based, human", "experimental": "NF-κB Electrophoretic Mobility Shift Assay. Electrophoretic gel mobility shift assays were used to assess the binding of NF-κB to DNA. Nuclear extracts of MM cells treated with 80 nM DOX, 100 μM DOX, APMS-TEG, APMS-TEG preloaded with 80 nM DOX (APMS-DOX80) for 4 h, were prepared as described previously (14). Samples were treated with or without TNF-α, 1 h prior to harvesting nuclear protein. The amount of protein in each sample was determined with the Bio-Rad protein assay (Bio-Rad). A ^32P-end-labeled double stranded oligodeoxynucleotide representing the specific element that contains an NF-κB consensus sequence (E3292, Promega, Madison, Wis.) was incubated with 3 μg of extract as described previously (15). The components of the NF-κB complex were identified by antibodies specific for p50 and p65 proteins (Santa Cruz Biotechnology, Inc., Santa Cruz, Calif.). Autoradiograms were developed and quantitated with a Bio-Rad phosphorimager."}, "[6]": {"system": "MM cells", "test": "MTS cell viability assay", "type": "cell-based, human", "conditions": "80 nM DOX; varying amounts of time", "experimental": "Cell viability was measured in treated cells by using the calorimetric MTS Assay, CellTiter 96 AQueous One Solution Cell Proliferation Assay (Promega) as per the manufacturer's recommendations. Briefly, 5×10^3 cells were plated in a 96-well microtiter plate and allowed to recover overnight. Medium was aspirated, and cells were maintained in a low serum-containing medium for 24 h prior to treatment for varying amounts of time with APMS and/or DOX. MTS reagent was added, plates were incubated at 37° C. for 2-3 h and the absorbance of the wells was read at 492 nm as a measure of cell viability."}, "[7]": {"system": "ERK1/2", "test": "Western blot for phosphorylated ERK1/2", "type": "cell-based, human", "conditions": "80 nM DOX; 4, 8, 24 and 48 h", "experimental": "as §1"}, "[8]": {"system": "MM cells", "test": "Flow cytometry of mechanisms of APMS uptake", "type": "cell-based, human", "conditions": "30 min pretreatment; chlorpromazine 5 μg/ml, cytochalasin D 1 μM, filipin 6.25 μg/ml; vs control at 37° C.", "experimental": "Cells were exposed for 30 min to chemical inhibitors of specific uptake mechanisms: chlorpromazine ([…]), cytochalasin D (1 μM), or filipin (6.25 μg/ml), i.e. at effective concentrations as reported in the literature (25-29), or incubated at 4° C. for 30 min prior to addition of APMS for various amounts of time. Hoechst 33342 nucleic acid dye (16.2 μM) (Molecular Probes, Invitrogen) was added 15 min prior to harvesting cells. Cells were washed once in PBS and removed from dishes using Accutase cell detachment solution (Innovative Cell Technologies, Inc. San Diego, Calif.), pelleted by centrifugation, resuspended in calcium and magnesium-free phosphate buffered saline (PBS), and kept on ice until analyzed. Samples were analyzed using a BD LSRII flow cytometer (BD Biosciences, San Jose, Calif.) equipped with a Sapphire 488 (Coherent, Santa Clara, Calif.) laser which emits at 488 nm to excite the Alexa 488 dye, and a solid state Xcite (Lightwave) which emits at 355 nm to excite the Hoechst 333342 nucleic acid dye (Molecular Probes, Invitrogen). Data analysis was performed at the time of acquisition using Flow Jo (Tree Star, Inc., Ashland, Oreg.). This software package is an experiment-based flow cytometry data analysis package designed for multi-color research.\nTo verify that the gating used in determining cell populations was accurate, FACS analysis was performed on different populations. Populations of cells/APMS were selected based on their locations on histograms, and were sorted, collected and mounted on glass slides using cytocentriftigation. […] The fluorescent signals from Alexa 488 were detected using 530/30 BP and 505 LP filters. Hoechst staining was detected using 440/40 BP filter. Identification and quantification of populations on cytospins were performed manually with phase contrast and fluorescence microscopy using an Olympus BX50 microscope (Olympus America, Lake Success, N.Y.)."}},
  "data": [
    {"compound": "COc1cccc2c1C(=O)c1c(O)c3c(c(O)c1C2=O)C[C@@](O)(C(=O)CO)C[C@@H]3O[C@H]1C[C@H](N)[C@H](O)[C@H](C)O1", "note": "[DOX, doxorubicin]", "values": [
      {"measurement": "cell death compared to total LDH released from lysed cells", "setting": "[1]", "value": "10-13%"},
      {"measurement": "levels of γH2AX", "setting": "[2]", "value": "increased"},
      {"measurement": "amount of DOX transferred to the cell relative to DOX preloaded into APMS", "setting": "[3]", "value": "Approximately half as much"},
      {"measurement": "maximum amount of DOX transferred to the cellular interior, of the initial dose", "setting": "[3]; human", "value": "approximately 25%"},
      {"measurement": "phospho-AKT: total AKT ratios", "setting": "[4]", "value": "did not significantly affect"},
      {"measurement": "NF-κB-DNA binding after adding TNF-α 1 hr prior to harvesting", "setting": "[5]; 80 nM DOX", "value": "further increased the DNA binding"},
      {"measurement": "NF-κB-DNA binding after adding TNF-α for 1 h prior to harvesting", "setting": "[5]; 100 μM DOX", "value": "could not be reversed"},
      {"measurement": "NF-κB-DNA binding activity", "setting": "[5]; 100 μM DOX (a lethal concentration), 4 h", "value": "ablated"},
      {"measurement": "NF-κB-DNA binding activity", "setting": "[5]; 4 h exposure, 80 nM DOX, compared to controls", "value": "increased"},
      {"measurement": "cell viability (MTS)", "setting": "[6]", "value": "no significant difference"},
      {"measurement": "phospho-ERK1/2: total ERK1/2 ratio", "setting": "[7]", "value": "do not significantly affect"}
    ]},
    {"compound": "CN(C)CCCN1c2ccccc2Sc2ccc(Cl)cc21", "note": "[chlorpromazine]", "values": [
      {"measurement": "effect of inhibitor pretreatment on APMS-TEG particle uptake", "setting": "[8]", "value": "no inhibition"}
    ]},
    {"compound": "C=C1[C@@H](C)[C@H]2[C@H](Cc3ccccc3)NC(=O)[C@]23[C@H](OC(C)=O)/C=C/[C@@](C)(O)C(=O)[C@@H](C)C/C=C/[C@H]3[C@@H]1O", "note": "[cytochalasin D]", "values": [
      {"measurement": "effect of inhibitor pretreatment on APMS-TEG particle uptake", "setting": "[8]", "value": "decreased numbers of APMS-containing cells"}
    ]},
    {"compound": "CCCCC[C@@H](O)[C@H]1C(=O)O[C@H](C)[C@@H](O)/C=C/C=C/C=C/C=C/C=C(\\C)[C@@H](O)C[C@H](O)C[C@H](O)C[C@H](O)C[C@H](O)C[C@H](O)C[C@@H]1O", "note": "[filipin]", "values": [
      {"measurement": "effect of inhibitor pretreatment on APMS-TEG particle uptake", "setting": "[8]", "value": "no inhibition"}
    ]},
    {"compound": "TNF-α", "values": [
      {"measurement": "NF-κB DNA binding", "setting": "[5]; 1 hr incubation", "value": "dramatically increased DNA binding"}
    ]}
  ]
}
